Blank lines part the entries; values can stand above or below the molecule they belong to.
What was measured:
[1] = target: T1, Sodium-dependent phosphate transport protein 2B (Homo sapiens, UniProt O95436); experiment: Inhibition of human NaPi2b
T1 sequence (O95436 whole entry): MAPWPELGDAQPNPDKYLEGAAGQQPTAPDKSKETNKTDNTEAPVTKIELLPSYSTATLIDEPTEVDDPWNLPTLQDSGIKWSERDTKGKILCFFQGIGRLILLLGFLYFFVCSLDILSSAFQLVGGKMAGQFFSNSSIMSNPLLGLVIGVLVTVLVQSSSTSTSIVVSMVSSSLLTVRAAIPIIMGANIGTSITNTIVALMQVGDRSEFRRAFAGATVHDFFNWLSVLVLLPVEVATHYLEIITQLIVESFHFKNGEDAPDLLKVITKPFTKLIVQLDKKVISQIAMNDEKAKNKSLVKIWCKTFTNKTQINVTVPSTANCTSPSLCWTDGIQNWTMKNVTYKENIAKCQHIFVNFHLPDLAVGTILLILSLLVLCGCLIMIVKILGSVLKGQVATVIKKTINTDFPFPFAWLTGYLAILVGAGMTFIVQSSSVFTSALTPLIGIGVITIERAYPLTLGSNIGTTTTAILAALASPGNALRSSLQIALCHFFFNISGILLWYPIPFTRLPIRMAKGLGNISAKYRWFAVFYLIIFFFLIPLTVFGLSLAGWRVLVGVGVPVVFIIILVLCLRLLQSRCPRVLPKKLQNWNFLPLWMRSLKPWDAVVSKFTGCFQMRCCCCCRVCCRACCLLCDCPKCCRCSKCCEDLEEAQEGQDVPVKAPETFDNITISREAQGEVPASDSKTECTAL

[2] = target: T2, Sodium-dependent phosphate transport protein 2B (Rattus norvegicus, UniProt Q9JJ09); experiment: Inhibition of rat NaPi2b
T2 sequence (Q9JJ09 whole entry): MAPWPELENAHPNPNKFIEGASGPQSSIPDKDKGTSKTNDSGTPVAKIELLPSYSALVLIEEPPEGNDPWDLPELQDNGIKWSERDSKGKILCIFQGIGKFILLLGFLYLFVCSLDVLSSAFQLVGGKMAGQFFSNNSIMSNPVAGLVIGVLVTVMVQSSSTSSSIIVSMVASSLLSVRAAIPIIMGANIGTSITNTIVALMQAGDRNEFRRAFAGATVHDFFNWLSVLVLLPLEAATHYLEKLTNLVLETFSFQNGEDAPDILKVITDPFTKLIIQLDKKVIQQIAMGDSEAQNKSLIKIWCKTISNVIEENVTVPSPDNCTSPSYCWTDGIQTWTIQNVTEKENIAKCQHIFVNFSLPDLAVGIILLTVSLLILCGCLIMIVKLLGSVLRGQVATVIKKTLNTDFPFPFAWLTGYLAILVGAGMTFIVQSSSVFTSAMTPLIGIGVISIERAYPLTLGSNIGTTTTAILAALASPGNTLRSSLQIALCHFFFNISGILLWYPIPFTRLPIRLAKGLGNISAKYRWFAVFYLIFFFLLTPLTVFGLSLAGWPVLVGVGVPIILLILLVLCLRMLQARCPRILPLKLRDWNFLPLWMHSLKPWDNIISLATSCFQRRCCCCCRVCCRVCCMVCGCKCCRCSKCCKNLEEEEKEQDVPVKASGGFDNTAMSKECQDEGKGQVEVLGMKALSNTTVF

[3] = Oral bioavailability in fasted Sprague-Dawley rat at 10 mg/kg; type: ADME, organism-based; settings: in vivo; for bioavailability: Sprague-Dawley
[4] = AUC (0 to t) in fasted Sprague-Dawley rat at 10 mg/kg, po; type: ADME, organism-based; parameters: dose 10 mg/kg, route po; settings: in vivo; for AUC(0-t): Sprague-Dawley
[5] = AUC (0 to t) in fasted Sprague-Dawley rat at 1 mg/kg, iv; type: ADME, organism-based; parameters: dose 1 mg/kg, route iv; settings: in vivo; for AUC(0-t): Sprague-Dawley
[6] = Drug excretion in fasted Sprague-Dawley rat feces at 10 mg/kg, po measured after 24 hrs; type: ADME, organism-based; settings: faeces, read-out: Drug excretion
[7] = Drug concentration in Sprague-Dawley rat intestine at 10 mg/kg, po relative to excretion rate; type: ADME, organism-based; settings: in vivo
[8] = Drug concentration in Sprague-Dawley rat intestine at 10 mg/kg, po relative to intestine volume; type: ADME, organism-based; settings: in vivo
[9] = Cmax in fasted Sprague-Dawley rat at 10 mg/kg, po; type: ADME, organism-based; parameters: dose 10 mg/kg, route po; settings: in vivo
[10] = Solubility of the compound in FaSSIF at pH 6.6; type: physicochemical
[11] = Solubility of the compound in FeSSIF at pH 5.1; type: physicochemical

IC50 [1]: 713 nM
SMILES: CCC(CC)N(CCN(C)C(=O)CCC(=O)O)Cc1cccc(C(=O)Nc2sc3c(c2C(=O)c2cnn(-c4ccc(Cl)cc4)c2)CCSC3)c1

IC50 [1]: > 1000 nM
SMILES: CCC(CC)N(CCN(C)C(=O)CCC(=O)O)Cc1cccc(C(=O)Nc2sc3c(c2C(=O)c2cnn(-c4ccc(C(=O)O)cc4)c2)CCC(C)(C)C3)c1

IC50 [1]: 80 nM
SMILES: CCC(CC)N(CCN(C)C(=O)CCC(=O)O)Cc1cccc(C(=O)Nc2sc3c(c2C(=O)c2cnn(-c4ccc(Cl)cc4)c2)CCN(C2CC2)C3)c1

IC50 [1]: 2490 nM
SMILES: CCC(CC)N(CCN(C)C(=O)CCC(=O)O)Cc1cccc(C(=O)Nc2sc3c(c2C(=O)c2cnn(-c4ccc(Cl)cc4)c2)CCN(S(C)(=O)=O)C3)c1

IC50 [1]: > 1000 nM
SMILES: CCC(CC)N(CCN(C)C(=O)CCC(=O)O)Cc1cccc(C(=O)Nc2sc3c(c2C(=O)c2cnn(-c4cccc(C(=O)O)c4)c2)CCC(C)(C)C3)c1

IC50 [1]: > 1000 nM
SMILES: CCC(CC)N(CCN(C)C(=O)CCC(=O)O)Cc1cccc(C(=O)Nc2sc3c(c2C(=O)c2cnn(-c4ccc(Cl)cc4)c2)CCN(C(C)=O)C3)c1

IC50 [1]: > 1000 nM
SMILES: CCC(CC)N(CCN(C)C(=O)CCC(=O)O)Cc1cccc(C(=O)Nc2sc3c(c2C(=O)c2cnn(Cc4cccc(C(=O)O)c4)c2)CCC(C)(C)C3)c1

IC50 [1]: > 1000 nM
SMILES: CCC(CC)N(CCN(C)C(=O)CCC(=O)O)Cc1cccc(C(=O)Nc2sc3c(c2C(=O)c2cnn(Cc4ccc(C(=O)O)cc4)c2)CCC(C)(C)C3)c1

IC50 [1]: 36 nM
SMILES: CCC(CC)N(CCN(C)C(=O)CCC(=O)O)Cc1cccc(C(=O)Nc2sc3c(c2C(=O)c2cnn(-c4ccc(Cl)cc4)c2)CCC(C)(C)C3)c1

IC50 [1]: 437 nM
SMILES: CCC(CC)N(CCN(C)C(=O)CCC(=O)O)Cc1cccc(C(=O)Nc2sc3c(c2C(=O)c2cnn(-c4ccc(Cl)cc4)c2)CCOC3)c1

IC50 [2]: 7.6 nM
F ([3]; po, 10 mg/kg): 0.6%
AUCt [4]: 15.3 ng·h/mL
IC50 [1]: 48 nM
AUCt [5]: 2580 ng·h/mL
dose excreted at 24 h [6]: 76.8%
Ct [7]: 45 µg/mL
Ct [8]: 58 µg/mL
Cmax [9]: 15.3 ng/mL
SMILES: CCC(CC)N(CCN(C)C(=O)CCC(=O)NC(C)(C)C(=O)NCCN(C)C)Cc1cccc(C(=O)Nc2sc3c(c2C(=O)c2cnn(-c4ccc(Cl)c(C(F)(F)F)c4)c2)CCC(C)(C)C3)c1

IC50 [1]: 42 nM
SMILES: CCN([C@H]1CC[C@H](C(=O)O)CC1)S(=O)(=O)c1cccc(C(=O)Nc2sc3c(c2C(=O)c2cnn(-c4ccc(Cl)c(C(F)(F)F)c4)c2)CCC(C)(C)C3)c1

IC50 [1]: 179 nM
SMILES: CCC(CC)N(CCN(C)C(=O)CCC(=O)O)Cc1cccc(C(=O)Nc2sc3c(c2C(=O)c2cnn(Cc4ccccc4)c2)CCC(C)(C)C3)c1

IC50 [1]: > 1000 nM
SMILES: CCC(CC)N(CCN(C)C(=O)CCC(=O)O)Cc1cccc(C(=O)Nc2sc3c(c2C(=O)c2cnn(Cc4nnc[nH]4)c2)CCC(C)(C)C3)c1

IC50 [1]: 87 nM
SMILES: CCC(CC)N(CCN(C)C(=O)CCC(=O)N(C)C[C@H](O)[C@@H](O)[C@@H](O)[C@H](O)CO)Cc1cccc(C(=O)Nc2sc3c(c2C(=O)c2cnn(-c4ccc(Cl)c(C(F)(F)F)c4)c2)CCC(C)(C)C3)c1

IC50 [1]: 39 nM
SMILES: CCC(CC)N(CCN(C)C(=O)CCC(=O)O)S(=O)(=O)c1cccc(C(=O)Nc2sc3c(c2C(=O)c2cnn(-c4ccc(Cl)c(C(F)(F)F)c4)c2)CCC(C)(C)C3)c1

solubility [10]: 107 µg/mL
solubility [11]: > 384 µg/mL
SMILES: CCC(CC)N(CCN(C)C(=O)CCC(=O)NCCOCCOCCOCCO)Cc1cccc(C(=O)Nc2sc3c(c2C(=O)c2cnn(-c4ccc(Cl)c(C(F)(F)F)c4)c2)CCC(C)(C)C3)c1.Cl

IC50 [1]: 170 nM
SMILES: CC1(C)CCc2c(sc(NC(=O)c3cccc(OCCOCCOCCOCCOCCOCCO)c3)c2C(=O)c2cnn(-c3ccc(Cl)c(C(F)(F)F)c3)c2)C1

IC50 [2]: 2.1 nM
bioavailability [3]: 0.2%
AUC(0-t) [4]: 32.3 ng·h/mL
IC50 [1]: 15 nM
AUC(0-t) [5]: 1570 ng·h/mL
dose excreted at 24 h [6]: 61.7%
Ct [7]: 36 µg/mL
Ct [8]: 58 µg/mL
Cmax [9]: 28.1 ng/mL
SMILES: CCC(CC)N(CCN(C)C(=O)CCC(=O)NCCOCCOCCOCCO)Cc1cccc(C(=O)Nc2sc3c(c2C(=O)c2cnn(-c4ccc(Cl)c(C(F)(F)F)c4)c2)CCC(C)(C)C3)c1

bioavailability [3]: 7.1%
AUC(0-t) [4]: 2190 ng·h/mL
IC50 [1]: 38 nM
AUC(0-t) [5]: 3070 ng·h/mL
Cmax [9]: 625 ng/mL
SMILES: CCC(CC)N(CCN(C)C(=O)CCC(=O)O)Cc1cccc(C(=O)Nc2sc3c(c2C(=O)c2cnn(-c4ccc(Cl)c(C(F)(F)F)c4)c2)CCC(C)(C)C3)c1

IC50 [1]: 118 nM
SMILES: CCC(CC)N(CCN(C)C(=O)CCC(=O)O)Cc1cccc(C(=O)Nc2sc3c(c2C(=O)c2cnn(-c4ccc(Cl)cc4)c2)CCCC3)c1

solubility [10]: 242 µg/mL
solubility [11]: > 434 µg/mL
SMILES: CCC(CC)N(CCN(C)C(=O)CCC(=O)NC(C)(C)C(=O)NCCN(C)C)Cc1cccc(C(=O)Nc2sc3c(c2C(=O)c2cnn(-c4ccc(Cl)c(C(F)(F)F)c4)c2)CCC(C)(C)C3)c1.Cl

IC50 [1]: 46 nM
SMILES: CCC(CC)N(CCN(C)C(=O)CCC(=O)O)Cc1cccc(C(=O)Nc2sc3c(c2C(=O)c2cnn(-c4cccc(C(F)(F)F)c4)c2)CCC(C)(C)C3)c1

From ChEMBL document CHEMBL5131457, “Design, synthesis and biological evaluation of novel 1H-pyrazole-4-carbonyl-4,5,6,7-tetrahydrobenzo [b]thiophene derivatives as gut-selective NaPi2b inhibitors” (Bioorg Med Chem Lett, 2022)
